Source: patent publication US20090170867A1, “TRPV1 ANTAGONISTS INCLUDING SULFONAMIDE SUBSTITUENT AND USES THEREOF” (Shionogi & Co., Ltd., priority 2007, published 2009)

Tests used:
human TRPV1 [1] = target: T1, human TRPV1 (Homo sapiens, UniProt Q8NER1); assay: pH-based assay, Protocol 2 (TRPV1/CHO cells, Fura-2 AM, FDSS-3000, pH 5.0-5.1); format: cell-based; settings: H2SO4 agonist, mean ± SEM, number of trials in parentheses, read-out: TRPV1 IC50 Potency, Human pH CHO (hpH-CHO)
T1 construct: using primers designed surrounding the complete hTRPV1 open reading frame; expressed in transfected cells; host or cells: CHO-K1 cells stably transfected with pcDNA3.1(-)-hVR1 plasmid
T1 sequence (Q8NER1 whole entry): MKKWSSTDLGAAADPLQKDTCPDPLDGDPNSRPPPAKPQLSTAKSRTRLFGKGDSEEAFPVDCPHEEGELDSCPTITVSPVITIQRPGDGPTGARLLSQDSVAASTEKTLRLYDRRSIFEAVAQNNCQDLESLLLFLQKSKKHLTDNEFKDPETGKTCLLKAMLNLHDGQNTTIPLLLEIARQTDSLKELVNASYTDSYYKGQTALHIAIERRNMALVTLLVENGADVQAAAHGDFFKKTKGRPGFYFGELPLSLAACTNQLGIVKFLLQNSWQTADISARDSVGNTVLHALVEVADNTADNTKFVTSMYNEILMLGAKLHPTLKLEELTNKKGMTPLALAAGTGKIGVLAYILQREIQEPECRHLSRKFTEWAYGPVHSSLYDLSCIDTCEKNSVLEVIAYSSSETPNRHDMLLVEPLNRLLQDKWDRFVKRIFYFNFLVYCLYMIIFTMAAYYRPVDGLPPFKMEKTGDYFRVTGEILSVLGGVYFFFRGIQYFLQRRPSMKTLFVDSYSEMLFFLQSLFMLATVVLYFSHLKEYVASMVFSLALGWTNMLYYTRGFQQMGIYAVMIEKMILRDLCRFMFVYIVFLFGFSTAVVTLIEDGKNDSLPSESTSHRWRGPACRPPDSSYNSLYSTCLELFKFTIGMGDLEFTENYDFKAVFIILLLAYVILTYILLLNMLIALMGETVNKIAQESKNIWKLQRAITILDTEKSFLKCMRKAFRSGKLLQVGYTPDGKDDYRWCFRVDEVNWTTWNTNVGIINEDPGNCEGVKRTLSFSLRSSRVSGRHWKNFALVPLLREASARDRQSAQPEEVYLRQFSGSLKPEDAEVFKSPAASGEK
From the text: For Protocol 2, a Chinese Hamster Ovary cell line (CHO) that has been engineered to constitutively express human recombinant TRPV1 was used (TRPV1/CHO cells). The TRPV1/CHO cell line was generated as described below.
The resulting PCR products were purified from agarose gels using Gel Band Purification Kit (GE Healthcare Bioscience) and were subcloned into pCR-Blunt vector (Invitrogen). The cloned cDNA was fully sequenced using a fluorescent dye-terminator reagent (BigDye Terminator ver3.1 Cycle Sequencing Kit, Applied Biosystems) and ABI Prism 3100 genetic analyzer (Applied Biosystems). The pCR-Blunt vector containing the hTRPV1 cDNA was subjected to restriction digestion with EcoRI. The restriction fragment was subcloned into expression vector pcDNA3.1 (−) (Invitrogen) and named pcDNA3.1 (−)-hVR1 plasmid. The sequence of the cDNA encoding TRPV1 is available at GenBank accession number AJ277028.
CHO-K1 cells were maintained in growth medium consisting of α-MEM, 10% FBS (Hyclone), and 100 IU/mL of penicillin-100 μg/mL of streptomycin mixed solution (Nacalai Tesque, Japan) at 37° C. in an environment of humidified 95% air and 5% CO2. The cells were transfected with the pcDNA3.1 (−)-hVR1 plasmid using FuGENE6 (Roche) according to the manufacturer's protocol. 24 hr after transfection, neomycin-resistant cells were selected using 1 mg/mL G418 (Nacalai Tesque). After 2 weeks, individual colonies were picked, expanded, and screened for the expression of hTRPV1 in the capsaicin-induced Ca^2+ influx assay (see below) with a FLIPR (Molecular Devices). A clone with the largest Ca^2+ response to capsaicin was selected and re-cloned by the same procedure. The cells expressing hTRPV1 were cultured in the growth medium supplemented with 1 mg/mL G418.
TRPV1/CHO cells were seeded in the 96-well clear-bottom black-wall plate (Nunc) at densities of 1-2×10^4 cells/well and grown in 100 μL of culture medium (alpha-MEM supplemented with 10% FBS, 20 mM HEPES, 1 mg/mL geneticin and 1% antibiotic-antimycotic mixed stock solution) for 1-2 days before the experiment.
Different agonist solutions with sulfuric acid concentrations of from 15 mM to 18 mM (see FIG. 1) were prepared by diluting 1M sulfuric acid with measuring buffer. The different sulfuric acid concentrations in the agonist solutions were selected such that a 1:4 dilution would result in a final sulfuric acid concentration of between 3.0 mM to 3.6 mM, respectively, as indicated in FIG. 1.
The cells were stimulated using 3.0 mM (well number B1-6), 3.1 mM (C1-6), 3.2 mM (D1-6), 3.3 mM (E1-6), 3.4 mM (F1-6), 3.5 mM (G1-6), or 3.6 mM (H1-6) H2SO4 or pH 7.2 measuring buffer without H2SO4 (A1-6) (FIG. 2).
(1) Culture medium was removed using an 8-channel-pipette (Rainin, USA) from the 96-well plate and the wells were refilled with 100 μL of loading buffer (20 mM HEPES, 115 mM NaCl, 5.4 mM KCl, 0.8 mM MgCl2, 1.8 mM CaCl2, 13.8 mM D-glucose, 2.5 mM probenecid, pH 7.4) containing 5 μM Fura-2 AM (Dojin, Japan).
(2) The 96-well plate was incubated at 37° C. for 45 min.
(3) The loading buffer was removed from each well. The cells were subsequently washed twice with 150 μL of measuring buffer (20 mM HEPES, 115 mM NaCl, 5.4 mM KCl, 0.8 mM MgCl2, 5.0 mM CaCl2, 13.8 mM D-glucose, 0.1% BSA, pH 7.4) (no probenecid). The wells were then refilled with 80 μL of measuring buffer.
(4) After an incubation at 4° C. for 15 min, the 96-well plate was transferred to FDSS-3000 (Hamamatsu Photonics, Japan).
(5) The Fura-2 fluorescent intensity was monitored at a wavelength of 340 nm and at 380 nm, respectively, at a rate of 0.5 Hz for a total of 240 seconds.

human TRPV1 [2] = target: T1, human TRPV1; assay: Capsaicin-based assay, Protocol 2 (TRPV1/CHO cells, Fluo-4, FLIPR); format: cell-based; settings: capsaicin 100 nM final, mean ± SEM, number of trials in parentheses, read-out: TRPV1 IC50 Potency, Human Capsaicin CHO (hCAP-CHO)
From the text: The TRPV1/CHO cell line was generated as described below. […] The resulting PCR products were purified from agarose gels using Gel Band Purification Kit (GE Healthcare Bioscience) and were subcloned into pCR-Blunt vector (Invitrogen). The cloned cDNA was fully sequenced using a fluorescent dye-terminator reagent (BigDye Terminator ver3.1 Cycle Sequencing Kit, Applied Biosystems) and ABI Prism 3100 genetic analyzer (Applied Biosystems). The pCR-Blunt vector containing the hTRPV1 cDNA was subjected to restriction digestion with EcoRI. The restriction fragment was subcloned into expression vector pcDNA3.1 (-) (Invitrogen) and named pcDNA3.1 (-)-hVR1 plasmid. The sequence of the cDNA encoding TRPV1 is available at GenBank accession number AJ277028. […] The cells were transfected with the pcDNA3.1 (-)-hVR1 plasmid using FuGENE6 (Roche) according to the manufacturer's protocol. 24 hr after transfection, neomycin-resistant cells were selected using 1 mg/mL G418 (Nacalai Tesque). […] The cells expressing hTRPV1 were cultured in the growth medium supplemented with 1 mg/mL G418. […] Subsequently, the cells were loaded by incubation in 0.1 mL of wash buffer containing Fluo-4 at 3 μM final concentration. After 1 hour, the cells were washed twice with 0.2 mL wash buffer and resuspended in 0.1 mL wash buffer. The plates were then transferred to a Fluorescence Imaging Plate Reader (Molecular Devices). Fluorescence intensity was monitored for 15 seconds to establish a baseline. […] The final concentration of the compound was adjusted to range from 100 μM to 1.5625 μM. […] Data were collected over the entire time course and analyzed using Excel and the curve-fitting formula GraphPad Prism.

| SMILES | IC50 (human TRPV1 [1]) [nM] | IC50 (human TRPV1 [2]) [nM] |
| --- | --- | --- |
| O=C(Nc1ccc(C(F)(F)F)cn1)N1CC=C(c2ncccc2Cl)CC1 [Compound 201] | 185 | 131 |
| O=C(Nc1ccc(C(F)(F)F)c(F)c1)N1CC=C(c2ncccc2F)CC1 [Compound 202] | 590 | 182 |
| O=C(Nc1ccc(C(F)(F)F)cc1)N1CCC(F)(c2ncccc2Cl)CC1 [Compound 203] | 51.2 | 90.2 |
| O=C(Nc1ccc(C(F)(F)F)cn1)N1CCC(F)(c2ncccc2Cl)CC1 [Compound 204] | 154 | 167 |
| O=C(Nc1nc2ccc(F)cc2s1)N1CCC(F)(c2ncccc2Cl)CC1 [Compound 206] | 1460 | 508 |
| COCc1cnc(C2=CCN(C(=O)Nc3ccc(S(=O)(=O)C(F)(F)F)cc3)CC2)c(Cl)c1 [Compound A3] | 310 ± 38.9 | 414 ± 99.6 |
| O=C(Nc1ccc(C(F)(F)F)c(F)c1)N1CCC(F)(c2ncc([C@@H](O)CO)cc2F)CC1 [Compound A6] | 9 ± 0.8 | 49.8 ± 12.1 |
| O=C(Nc1ccc(C(F)(F)F)cc1)N1CCC(F)(c2ncc([C@@H](O)CO)cc2Cl)CC1 [Compound B1] | 7.4 ± 0.3 | 7.81 ± 1.2 |
| CC(C)c1cc(NC(=O)N2CC=C(c3ncc([C@H](O)CO)cc3Cl)CC2)ccc1OC(F)(F)F [Compound B2] | 40.5 | 77.6 ± 12 |
| CC(C)(O)c1cnc(C2=CCN(C(=O)Nc3nc4ccc(Cl)cc4s3)CC2)c(Cl)c1 [Compound B3] | 106 ± 11.4 | 537 ± 62 |
| O=C(Nc1ccc(S(=O)(=O)C(F)(F)F)cc1)N1CCC(F)(c2ncc([C@@H](O)CO)cc2Cl)CC1 [Compound B4] | 5.8 ± 1.3 | 57.2 ± 11.6 |
| O=C(Nc1ccc(Br)c(C(F)(F)F)c1)N1CCC(F)(c2ncc([C@H](O)CO)cc2Cl)CC1 [Compound B5] | 15 ± 3 | 106 ± 21 |
| CC(O)c1cnc(C2=CCN(C(=O)Nc3ccc(C(F)(F)F)cn3)CC2)c(Cl)c1 (stereo not shown) [Compound B6] | 362 ± 69.1 | 922 ± 205 |
| O=C(Nc1ccc(S(=O)(=O)C(F)(F)F)cc1)N1CC=C(c2ncc(CO)cc2Cl)CC1 [Compound C2] | 41.8 ± 3.8 | 98.7 ± 33.9 |
| O=C(Nc1nc2ccc(Cl)cc2s1)N1CC=C(c2ncc([C@H](O)CO)cc2F)CC1 [Compound C4] | 18.6 ± 2.8 | 66.2 ± 7.5 |
| COc1cc(NC(=O)N2CCC(F)(c3ncc([C@H](O)CO)cc3F)CC2)ccc1C(F)(F)F [Compound C5] | 39.9 ± 7.9 | 108 ± 38.4 |
| CC(C)(C)c1ccc(NC(=O)N2CC=C(c3ncc([C@H](O)CO)cc3F)CC2)cc1 [Compound D1] | 0.9 | 16.5 ± 4.1 |
| O=C(Nc1ccc(C(F)(F)F)c(Cl)c1)N1CC=C(c2ncc([C@H](O)CO)cc2Cl)CC1 [Compound D2, (S)-3-Chloro-5-(1,2-dihydroxy-ethyl)-3′,6′-dihydro-2′H-[2,4′]bipyridinyl-1′-carboxylic acid (3-chloro-4-trifluoromethyl-phenyl)amide] | 10.8 ± 0.9 | 85.3 ± 20.7 |
| O=C(Nc1ccc(C(F)(F)F)cn1)N1CCC(F)(c2ncc([C@@H](O)CO)cc2Cl)CC1 [Compound D4] | 54.8 | 69.6 ± 6.9 |
| CC(C)(O)c1cnc(C2=CCN(C(=O)Nc3ccc(C(F)(F)F)c(F)c3)CC2)c(Cl)c1 [Compound E3] | 141 ± 23.1 | 671 ± 133 |
| O=C(Nc1ccc(Cl)c(C(F)(F)F)c1)N1CCC(F)(c2ncc([C@H](O)CO)cc2F)CC1 [Compound E5] | 33.8 | 133 ± 28.5 |
| COCc1cnc(C2=CCN(C(=O)Nc3ccc(C(F)(F)F)cc3)CC2)c(Cl)c1 [Compound F3] | 585 | 916 ± 306 |
| O=C(Nc1ccc(C(F)(F)F)cc1)N1CC=C(c2ncc(C(F)(F)CO)cc2Cl)CC1 [Compound F4, 4-(3-chloro-5-(1,1-difluoro-2-hydroxyethyl)pyridin-2-yl)-N-(4-(trifluoromethyl)phenyl)-5,6-dihydropyridine-1(2H)-carboxamide] | 32.5 ± 2.4 | 86.7 ± 18.9 |
